Experimental findings from US8916183B2, “Pesticidal compositions and processes related thereto” (priority 2012, dated 2014) are described below.

SMILES strings stand for the structures. Where two headings read alike, the source gives them in different places.

Common to all, as to format: in vivo
Series [1] concerns Beet Armyworm (BAW) (Spodoptera exigua). Briefly: Bioassay on beet armyworm (BAW), 128-well diet tray assay. To be noted: for mortality at 50 µg/cm2: Spodoptera exigua, read-out: % Mortality BAW 50 μg/cm^2.
Series [2] concerns Corn Earworm (CEW) (Helicoverpa zea). Briefly: Bioassay on corn earworm (CEW), 128-well diet tray assay. The conditions noted are these: for mortality at 50 µg/cm2: Helicoverpa zea, read-out: % Mortality CEW 50 μg/cm^2. An outline of the steps:
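Larvae in a 128-well diet tray were held at 25° C under 14:10 light-dark for five to seven days. Percent mortality was scored per well and averaged over eight wells, then reported on a rating scale.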

The subject of series [3] is Green Peach Aphid (GPA) (Myzus persicae). In words: Bioassay on green peach aphid (GPA), foliar spray on cabbage seedlings. To be noted: read-out: % Mortality GPA 200 ppm. An outline of the steps:
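Cabbage seedlings (2-3 true leaves), each infested a day earlier with 20-50 wingless adult and nymph GPA, were sprayed on both leaf sides to runoff, four pots per treatment. Corrected % control was calculated against solvent-check plants.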

As for `CC1(O)CS/C(=N\N=C\c2ccc(-c3ncn(-c4ccc(OC(F)(F)F)cc4)n3)cc2)N1c1c(F)cccc1F` (stereo not drawn) [Compound 240C], the mortality at 50 µg/cm2 in series [1] (beet armyworm, 50 μg/cm^2) was in the range of 50 to 100%; in series [2] (corn earworm, 50 μg/cm^2) it was 50 to 100%. In addition, in series [3] (green peach aphid, 200 ppm), the mortality at 200 ppm was 0%.

`CCCc1ccccc1N1/C(=N/N=C/c2ccc(-c3ncn(-c4ccc(OC(F)(F)F)cc4)n3)cc2)SCC1(C)O` (stereo not drawn) [Compound 256C]: the mortality at 50 µg/cm2 in series [1] (beet armyworm, 50 μg/cm^2) fell in the range of 50 to 100%; in series [2] (corn earworm, 50 μg/cm^2), 50 to 100%. In addition, the mortality at 200 ppm in series [3] (green peach aphid, 200 ppm) lay in the range of 0 to 80%.

For `Cc1cccc(C)c1/N=C(/N/N=C/c1ccc(-c2ncn(-c3ccc(OC(F)(F)F)cc3)n2)cc1)SCC(=O)O` [Compound 47C], the mortality at 50 µg/cm2 lay in the range of 50 to 100% in series [1] (beet armyworm, 50 μg/cm^2) and 50 to 100% in series [2] (corn earworm, 50 μg/cm^2). The mortality at 200 ppm in series [3] (green peach aphid, 200 ppm) was 0 to 80%.

Take `Cc1cccc(C)c1/N=C(/N/N=C/c1ccc(-c2ncn(-c3ccc(OC(F)(F)F)cc3)n2)cc1)SCOC(=O)CNC(=O)OCc1ccccc1` [Compound 23C]: the mortality at 50 µg/cm2 in series [1] and in series [2] was 50 to 100% each time. Further, the mortality at 200 ppm in series [3] came out at 0%.

Consider `Cc1ccc(N2/C(=N/N=C/c3ccc(-c4ncn(-c5ccc(OC(F)(F)F)cc5)n4)cc3)SCC2(C)O)c(C(C)C)c1` (stereo not drawn) [Compound 251C], for which the mortality at 50 µg/cm2 was 50 to 100% in series [1] (beet armyworm, 50 μg/cm^2) and 50 to 100% in series [2] (corn earworm, 50 μg/cm^2). In series [3] (green peach aphid, 200 ppm), the mortality at 200 ppm lay within 0 to 80%.

Consider `Cc1cc(C)c(N2CCS/C2=N\N=C\c2ccc(-c3ncn(-c4ccc(OC(F)(F)F)cc4)n3)cc2)c(C)c1` [Compound 139C], for which the mortality at 50 µg/cm2 in series [1] (beet armyworm, 50 μg/cm^2) lay in the range of 50 to 100%; in series [2] (corn earworm, 50 μg/cm^2), 50 to 100%. Further, the mortality at 200 ppm in series [3] (green peach aphid, 200 ppm) was 0 to 80%.

Take `Fc1cccc(F)c1N1CCCS/C1=N\N=C\c1ccc(-c2ncn(-c3ccc(OC(F)(F)F)cc3)n2)cc1` [Compound 189C]: the mortality at 50 µg/cm2 fell in the range of 50 to 100% in series [1] (beet armyworm, 50 μg/cm^2) and 50 to 100% in series [2] (corn earworm, 50 μg/cm^2). Also, the mortality at 200 ppm in series [3] (green peach aphid, 200 ppm) was in the range of 0 to 80%.

In the case of `O=C1CS/C(=N\N=C\c2ccc(-c3ncn(-c4ccc(OC(F)(F)F)cc4)n3)cc2)N1c1ccccc1C1CC1` [Compound 112C], the mortality at 50 µg/cm2 lay within 50 to 100% in series [1] (beet armyworm, 50 μg/cm^2) and 50 to 100% in series [2] (corn earworm, 50 μg/cm^2). For the same molecule, in series [3] (green peach aphid, 200 ppm), the mortality at 200 ppm lay within 0 to 80%.

For `CC1CS/C(=N\N=C\c2ccc(-c3ncn(-c4ccc(OC(F)(F)F)cc4)n3)cc2)N(c2ccccc2C(C)C)C1` (racemic) [Compound 178C], the mortality at 50 µg/cm2 was 50 to 100% in series [1] (beet armyworm, 50 μg/cm^2) and 50 to 100% in series [2] (corn earworm, 50 μg/cm^2). Moreover, the mortality at 200 ppm in series [3] (green peach aphid, 200 ppm) was found to be 0%.

In the case of `COc1cc(C)c(/N=C(/N/N=C/c2ccc(-c3ncn(-c4ccc(OC(F)(F)C(F)(F)F)cc4)n3)cc2)SCOC(=O)C(C)C)c(C)c1` [Compound 37C], the mortality at 50 µg/cm2 in series [1] (beet armyworm, 50 μg/cm^2) lay within 50 to 100%; in series [2] (corn earworm, 50 μg/cm^2), 50 to 100%. The mortality at 200 ppm in series [3] (green peach aphid, 200 ppm) is 0%.

Consider `COc1cc(C)c(/N=C(/N/N=C/c2ccc(-c3ncn(-c4ccc(OC(F)(F)F)cc4)n3)cc2)SCC(=O)O)c(C)c1.[Na+]` [Compound 68C, 2-(((Z)-((4-methoxy-2,6-dimethylphenyl)imino)((E)-2-(4-(1-(4-(trifluoromethoxy)phenyl)-1H-1,2,4-triazol-3-yl)benzylidene)hydrazinyl)methyl)-thio)acetic acid sodium salt], for which the “% Mortality BAW 50 μg/cm^2” value in series [1] (beet armyworm, 50 μg/cm^2) was “A (50-100)”. For the same molecule, in series [2] (corn earworm, 50 μg/cm^2), the “% Mortality CEW 50 μg/cm^2” value is “A (50-100)”. Also, the mortality at 200 ppm in series [3] (green peach aphid, 200 ppm) fell in the range of 0 to 80%.

With `CCc1cccc(C)c1N1C(=O)CS/C1=N\N=C\c1ccc(-c2ncn(-c3ccc(OC(F)(F)F)cc3)n2)cc1` [Compound 111C], the mortality at 50 µg/cm2 in series [1] (beet armyworm, 50 μg/cm^2) was in the range of 50 to 100%; in series [2] (corn earworm, 50 μg/cm^2), 50 to 100%. In series [3] (green peach aphid, 200 ppm), the mortality at 200 ppm fell in the range of 0 to 80%.

For the molecule `CC(C)=Cc1ccccc1N1C(=O)CS/C1=N\N=C\c1ccc(-c2ncn(-c3ccc(OC(F)(F)F)cc3)n2)cc1` [Compound 121C], the mortality at 50 µg/cm2 in series [1] (beet armyworm, 50 μg/cm^2) lay in the range of 50 to 100%; in series [2] (corn earworm, 50 μg/cm^2), 50 to 100%. Further, the mortality at 200 ppm in series [3] (green peach aphid, 200 ppm) was 0 to 80%.

Turning to `Cc1cc(C)c(N2CCCS/C2=N\N=C\c2ccc(-c3ncn(-c4ccc(OC(F)(F)F)cc4)n3)cc2)c(C)c1` [Compound 184C], the mortality at 50 µg/cm2 in series [1] (beet armyworm, 50 μg/cm^2) lay within 50 to 100%; in series [2] (corn earworm, 50 μg/cm^2) it was 50 to 100%. In addition, the mortality at 200 ppm in series [3] (green peach aphid, 200 ppm) amounted to 0%.

Take `O=C1CS/C(=N\N=C\c2ccc(-c3ncn(-c4ccc(OC(F)(F)F)cc4)n3)cc2)N1c1ccccc1-c1ccccc1` [Compound 96C]: the mortality at 50 µg/cm2 fell in the range of 50 to 100% in series [1] (beet armyworm, 50 μg/cm^2) and 50 to 100% in series [2] (corn earworm, 50 μg/cm^2). For the same molecule, in series [3] (green peach aphid, 200 ppm), the mortality at 200 ppm was 0 to 80%.

Consider `COc1cc(C)c(/N=C(/N/N=C/c2ccc(-c3ncn(-c4ccc(OC(F)(F)C(F)(F)F)cc4)n3)cc2)SCC(=O)O)c(C)c1` [Compound 51C], for which the mortality at 50 µg/cm2 in series [1] (beet armyworm, 50 μg/cm^2) was 50 to 100%; in series [2] (corn earworm, 50 μg/cm^2), 50 to 100%. Besides, the mortality at 200 ppm in series [3] (green peach aphid, 200 ppm) turned out to be 0%.

With `COc1ccccc1N1CCS/C1=N\N=C\c1ccc(-c2ncn(-c3ccc(OC(F)(F)F)cc3)n2)cc1` [Compound 140C], the mortality at 50 µg/cm2 in series [1] (beet armyworm, 50 μg/cm^2) was 50 to 100%; in series [2] (corn earworm, 50 μg/cm^2), 50 to 100%. In addition, the mortality at 200 ppm in series [3] (green peach aphid, 200 ppm) fell in the range of 0 to 80%.
